Source: patent US20260027380A1, “TECHNIQUES FOR MAGNETIC NANOCLUSTER-BASED COMBINATION THERAPY” (William Marsh Rice University, priority 2022, published 2026)

System: MC-38 cells
Test: Quantification of intracellular GSH (GSH-Glo)
Assay type: cell-based, murine
Conditions: without AMF, 37° C. for 4 h
Description: Glutathione (GSH) is an antioxidant that plays an important role in the scavenging of intracellular free radicals and protecting the cells against oxidative damage. GSH depletion will disrupt the redox homeostasis and lead to oxidative stress and eventual cell death. MC-38 cells were treated with 300 μg Fe/mL of IONC or IONC-AAPH and subjected to AMF for 2 hours. The intracellular GSH was quantified after 2 hours of incubation at 37° C. Intracellular GSH was also measured for cells treated with AAPH, IONC, or IONC-AAPH, respectively, without AMF and incubated at 37° C. for 4 h. The intracellular GSH was quantified using a luminescence-based GSH-Glo glutathione assay. FIG. 11 illustrates a GSH depletion measurement of the MC-38 cells 2 hours after treatment. […] In contrast, treating cells with IONC-AAPH under AMF (i.e., with both heating and free radicals) decreased the GSH/GSSG ratio to 55% of that in the control cells.
Quantification of intracellular GSH: MC-38 cells were seeded in 4-compartment cell culture dishes at a density of 1×10^5 cells per compartment and cultured overnight. Then the cells were treated with 300 μg Fe/mL of IONC-AAPH or IONC at 37° C. or under AMF for 2 h. Two hours after the treatment, the culture medium was removed and the intracellular GSH was quantified using a luminescence-based GSH-Glo Glutathione Assay according to the manufacturer's instructions.

Compound: CC(C)(N=NC(C)(C)C(=N)N)C(=N)N.Cl.Cl [AAPH, 2,2′-azobis(2-amidinopropane) dihydrochloride]
- change in GSH to GSSG ratio: did not affect the GSH to GSSG ratio
